# From US11311522B1 (Cavion, Inc., priority 2018, dated 2022)
# Experiment: PN001/Part I: safety and tolerability
# Assay type: in vivo, human
# Description: Safety was monitored throughout by adverse events, vital signs, and repeated clinical and laboratory evaluations. […] All adverse events were mild or moderate and severity and transient.
smiles,measurement,setting,value
CC(C)c1ccc(CC(=O)N[C@H](C)c2ccc(OCC(F)(F)F)cn2)cc1 [CX-8998],Abnormal physical sensation,12 mg,0 n (%)
same,At least 1 adverse event,12 mg,9 (75.0) n (%)
same,Dizziness,12 mg,1 (8.3) n (%)
same,Drowsiness,12 mg,1 (8.3) n (%)
same,Elevated mood,12 mg,1 (8.3) n (%)
same,Euphoric mood,12 mg,2 (16.7) n (%)
same,Eye Disorders,12 mg,1 (8.3) n (%)
same,Fatigue,12 mg,0 n (%)
same,Feeling abnormal,12 mg,2 (16.7) n (%)
same,Floating feeling,12 mg,0 n (%)
same,Gastro-intestinal Disorders,12 mg,3 (25.0) n (%)
same,Hangover effect,12 mg,0 n (%)
same,Headache,12 mg,2 (16.7) n (%)
same,Indifference,12 mg,0 n (%)
same,"Injury, Poisoning and Procedural Complications",12 mg,0 n (%)
same,Insomnia,12 mg,0 n (%)
same,Intoxication,12 mg,0 n (%)
same,Irritability,12 mg,0 n (%)
same,Lethargy,12 mg,1 (8.3) n (%)
same,Nervous System Disorders,12 mg,5 (41.7) n (%)
same,Paraesthesia,12 mg,0 n (%)
same,Paraesthesia oral,12 mg,1 (8.3) n (%)
same,Paraesthesia tongue,12 mg,2 (16.7) n (%)
same,Psychiatric Disorders,12 mg,4 (33.3) n (%)
same,Racing thoughts,12 mg,1 (8.3) n (%)
same,Relaxed,12 mg,4 (33.3) n (%)
same,Sensory disturbance,12 mg,0 n (%)
same,Vision blurred,12 mg,0 n (%)
same,Visual disturbance,12 mg,1 (8.3) n (%)
same,Vivid dreams,12 mg,0 n (%)
same,Abnormal physical sensation,12 mg evening,0 n (%)
same,At least 1 adverse event,12 mg evening,4 (66.7) n (%)
same,Dizziness,12 mg evening,0 n (%)
same,Drowsiness,12 mg evening,1 (16.7) n (%)
same,Elevated mood,12 mg evening,0 n (%)
same,Euphoric mood,12 mg evening,0 n (%)
same,Eye Disorders,12 mg evening,3 (50.0) n (%)
same,Fatigue,12 mg evening,0 n (%)
same,Feeling abnormal,12 mg evening,0 n (%)
same,Floating feeling,12 mg evening,0 n (%)
same,Gastro-intestinal Disorders,12 mg evening,1 (16.7) n (%)
same,Hangover effect,12 mg evening,0 n (%)
same,Headache,12 mg evening,1 (16.7) n (%)
same,Indifference,12 mg evening,0 n (%)
same,"Injury, Poisoning and Procedural Complications",12 mg evening,0 n (%)
same,Insomnia,12 mg evening,0 n (%)
same,Intoxication,12 mg evening,0 n (%)
same,Irritability,12 mg evening,0 n (%)
same,Lethargy,12 mg evening,1 (16.7) n (%)
same,Nervous System Disorders,12 mg evening,3 (50.0) n (%)
same,Paraesthesia,12 mg evening,0 n (%)
same,Paraesthesia oral,12 mg evening,0 n (%)
same,Paraesthesia tongue,12 mg evening,1 (16.7) n (%)
same,Psychiatric Disorders,12 mg evening,2 n (%)
same,Racing thoughts,12 mg evening,0 n (%)
same,Relaxed,12 mg evening,0 n (%)
same,Sensory disturbance,12 mg evening,0 n (%)
same,Vision blurred,12 mg evening,0 n (%)
same,Visual disturbance,12 mg evening,3 (50.0) n (%)
same,Vivid dreams,12 mg evening,2 n (%)
same,Abnormal physical sensation,16 mg evening,0 n (%)
same,At least 1 adverse event,16 mg evening,9 (75.0) n (%)
same,Dizziness,16 mg evening,1 (8.3) n (%)
same,Drowsiness,16 mg evening,1 (8.3) n (%)
same,Elevated mood,16 mg evening,3 (25.0) n (%)
same,Euphoric mood,16 mg evening,3 (25.0) n (%)
same,Eye Disorders,16 mg evening,1 (8.3) n (%)
same,Fatigue,16 mg evening,2 (16.7) n (%)
same,Feeling abnormal,16 mg evening,0 n (%)
same,Floating feeling,16 mg evening,1 (8.3) n (%)
same,Gastro-intestinal Disorders,16 mg evening,1 (8.3) n (%)
same,Hangover effect,16 mg evening,2 (16.7) n (%)
same,Headache,16 mg evening,4 (33.3) n (%)
same,Indifference,16 mg evening,2 (16.7) n (%)
same,"Injury, Poisoning and Procedural Complications",16 mg evening,0 n (%)
same,Insomnia,16 mg evening,0 n (%)
same,Intoxication,16 mg evening,0 n (%)
same,Irritability,16 mg evening,1 (8.3) n (%)
same,Lethargy,16 mg evening,1 (8.3) n (%)
same,Nervous System Disorders,16 mg evening,8 (66.7) n (%)
same,Paraesthesia,16 mg evening,1 (8.3) n (%)
same,Paraesthesia oral,16 mg evening,0 n (%)
same,Paraesthesia tongue,16 mg evening,0 n (%)
same,Psychiatric Disorders,16 mg evening,8 (66.7) n (%)
same,Racing thoughts,16 mg evening,2 (16.7) n (%)
same,Relaxed,16 mg evening,2 (16.7) n (%)
same,Sensory disturbance,16 mg evening,1 (8.3) n (%)
same,Vision blurred,16 mg evening,1 (8.3) n (%)
same,Visual disturbance,16 mg evening,0 n (%)
same,Vivid dreams,16 mg evening,8 (66.7) n (%)
same,Abnormal physical sensation,20 mg evening,1 (16.7) n (%)
same,At least 1 adverse event,20 mg evening,6 (100) n (%)
same,Dizziness,20 mg evening,0 n (%)
same,Drowsiness,20 mg evening,2 (33.3) n (%)
same,Elevated mood,20 mg evening,1 (16.7) n (%)
same,Euphoric mood,20 mg evening,3 (50.0) n (%)
same,Eye Disorders,20 mg evening,1 (16.7) n (%)
same,Fatigue,20 mg evening,0 n (%)
same,Feeling abnormal,20 mg evening,0 n (%)
same,Floating feeling,20 mg evening,0 n (%)
same,Gastro-intestinal Disorders,20 mg evening,0 n (%)
same,Hangover effect,20 mg evening,0 n (%)
same,Headache,20 mg evening,5 (83.3) n (%)
same,Indifference,20 mg evening,0 n (%)
same,"Injury, Poisoning and Procedural Complications",20 mg evening,2 (33.3) n (%)
same,Insomnia,20 mg evening,1 (16.7) n (%)
same,Intoxication,20 mg evening,2 (33.3) n (%)
same,Irritability,20 mg evening,1 (16.7) n (%)
same,Lethargy,20 mg evening,2 (33.3) n (%)
same,Nervous System Disorders,20 mg evening,6 (100) n (%)
same,Paraesthesia,20 mg evening,1 (16.7) n (%)
same,Paraesthesia oral,20 mg evening,0 n (%)
same,Paraesthesia tongue,20 mg evening,0 n (%)
same,Psychiatric Disorders,20 mg evening,5 (83.3) n (%)
same,Racing thoughts,20 mg evening,0 n (%)
same,Relaxed,20 mg evening,4 (66.7) n (%)
same,Sensory disturbance,20 mg evening,2 (33.3) n (%)
same,Vision blurred,20 mg evening,1 (16.7) n (%)
same,Visual disturbance,20 mg evening,0 n (%)
same,Vivid dreams,20 mg evening,2 (33.3) n (%)
same,Abnormal physical sensation,24 mg evening,0 n (%)
same,At least 1 adverse event,24 mg evening,6 (100) n (%)
same,Dizziness,24 mg evening,1 (16.7) n (%)
same,Drowsiness,24 mg evening,3 (50.0) n (%)
same,Elevated mood,24 mg evening,0 n (%)
same,Euphoric mood,24 mg evening,1 (16.7) n (%)
same,Eye Disorders,24 mg evening,2 (33.3) n (%)
same,Fatigue,24 mg evening,0 n (%)
same,Feeling abnormal,24 mg evening,1 (16.7) n (%)
same,Floating feeling,24 mg evening,1 (16.7) n (%)
same,Gastro-intestinal Disorders,24 mg evening,0 n (%)
same,Hangover effect,24 mg evening,0 n (%)
same,Headache,24 mg evening,6 (100) n (%)
same,Indifference,24 mg evening,0 n (%)
same,"Injury, Poisoning and Procedural Complications",24 mg evening,0 n (%)
same,Insomnia,24 mg evening,1 (16.7) n (%)
same,Intoxication,24 mg evening,0 n (%)
same,Irritability,24 mg evening,0 n (%)
same,Lethargy,24 mg evening,1 (16.7) n (%)
same,Nervous System Disorders,24 mg evening,6 (100) n (%)
same,Paraesthesia,24 mg evening,1 (16.7) n (%)
same,Paraesthesia oral,24 mg evening,0 n (%)
same,Paraesthesia tongue,24 mg evening,0 n (%)
same,Psychiatric Disorders,24 mg evening,4 (66.7) n (%)
same,Racing thoughts,24 mg evening,1 (16.7) n (%)
same,Relaxed,24 mg evening,0 n (%)
same,Sensory disturbance,24 mg evening,0 n (%)
same,Vision blurred,24 mg evening,1 (16.7) n (%)
same,Visual disturbance,24 mg evening,0 n (%)
same,Vivid dreams,24 mg evening,2 (33.3) n (%)
same,Abnormal physical sensation,any dose,2 (9.1) n (%)
same,At least 1 adverse event,any dose,19 (86.4) n (%)
same,Dizziness,any dose,2 (9.1) n (%)
same,Drowsiness,any dose,7 (31.8) n (%)
same,Elevated mood,any dose,6 (27.3) n (%)
same,Euphoric mood,any dose,8 (36.4) n (%)
same,Eye Disorders,any dose,9 (40.9) n (%)
same,Fatigue,any dose,2 (9.1) n (%)
same,Feeling abnormal,any dose,4 (18.2) n (%)
same,Floating feeling,any dose,2 (9.1) n (%)
same,Gastro-intestinal Disorders,any dose,4 (18.2) n (%)
same,Hangover effect,any dose,2 (9.1) n (%)
same,Headache,any dose,10 (45.5) n (%)
same,Indifference,any dose,2 (9.1) n (%)
same,"Injury, Poisoning and Procedural Complications",any dose,2 (9.1) n (%)
same,Insomnia,any dose,2 (9.1) n (%)
same,Intoxication,any dose,2 (9.1) n (%)
same,Irritability,any dose,2 (9.1) n (%)
same,Lethargy,any dose,3 (13.6) n (%)
same,Nervous System Disorders,any dose,16 (72.7) n (%)
same,Paraesthesia,any dose,2 (9.1) n (%)
same,Paraesthesia oral,any dose,2 (9.1) n (%)
same,Paraesthesia tongue,any dose,2 (9.1) n (%)
same,Psychiatric Disorders,any dose,15 (68.2) n (%)
same,Racing thoughts,any dose,4 (18.2) n (%)
same,Relaxed,any dose,9 (40.9) n (%)
same,Sensory disturbance,any dose,3 (13.6) n (%)
same,Vision blurred,any dose,4 (18.2) n (%)
same,Visual disturbance,any dose,4 (18.2) n (%)
same,Vivid dreams,any dose,11 (50.0) n (%)
same,Tolerability,single doses,Single doses up to 16 mg were generally well tolerated
